Test results from patent US20250376483A1, “PRODRUGS OF PAN-KRAS INHIBITORS” (Mirati Therapeutics, Inc., priority 2022, published 2025).

Assays:
[1] = Plasma Stability Assay (human plasma); assay type: in vitro ADME; details: both sexes; pooled human plasma, heparin, final conc. 2 μM, 37° C., 0-120 min; read-out: Human Plasma Stability t1/2
Experimental: This Example illustrates that exemplary compounds of the present invention is cleavage in human plasma.
(§1) Test Compounds and Stock Solutions: Stock Conc. 10 mM; Final Conc. 2 μM
(§2) Test Compound and Control Working Solution Preparation:
• Test compound intermediate solution: 10 μL of compound stock solution (10 mM in dimethyl sulfoxide (DMSO)) were diluted with 90 μL of DMSO (intermediate solution concentration: 1 mM, 100% DMSO) • Control intermediate solution: 10 μL of control stock solution (10 mM in dimethyl sulfoxide (DMSO)) were diluted with 90 μL of DMSO (intermediate solution concentration: 1 mM, 100% DMSO) • Species/Matrix: Human Plasma • No. of Individuals: 3 Male & 3 Female • Anticoagulant Used: Heparin
• The pooled frozen plasma was thawed in a water bath at 37° C. prior to experiment. Plasma was centrifuged at 4000 rpm for 5 min and the clots were removed if any. • Using an Apricot automation workstation, 98 μL/well of blank plasma were added to all 96-well reaction plates. (Blank, T0, T10, T30, T60 and T120) • An Apricot automation workstation was used to add 2 μL/well of working solution (100 μM) to all reaction plates except Blank. (T0, T10, T30, T60 and T120) • All reaction plates containing mixtures of compound and plasma were incubated at 37° C. in water bath. • The reaction plates were incubated at 37° C., and timer was started. • At the end of incubation, added 500 μL of stop solution (200 ng/mL tolbutamide and 200 ng/mL labetalol in ACN) to precipitate protein. Mixed thoroughly. • Each plate was sealed and shaken for 20 minutes. • After shaking, each plate was centrifuged at 4000 rpm and 4° C. for 20 minutes • After centrifugation, an Apricot automation workstation was used to transfer 50 μL supernatant into 100 μL HPLC water. • Each bioanalysis plate was sealed and shaken for 10 minutes prior to LC-MS/MS analysis Data Analysis • The % remaining of test compound after incubation in blood was calculated using following equation:
(§3) [formula] • where PAR is the peak area ratio of analyte versus internal standard (IS) • The appointed incubation time points are TO (0 min), Tn (n=0, 10, 30, 60 and 120 min)

[2] = Whole Blood Stability Assay (mouse whole blood); assay type: in vitro ADME; details: CD-1 mouse blood, EDTA-K2, final conc. 2 μM, 37° C., 0-120 min; for half-life at 2 μM: male, fresh whole blood, read-out: Mouse Whole Blood Stability t1/2
Experimental: Whole Blood Stability Assay
This Example illustrates that exemplary compounds of the present invention is cleavage in mouse whole blood.
as §1, §2
• Intermediate solution: 5 μL of compound stock solution (10 mM in dimethyl sulfoxide (DMSO)) were diluted with […] of DMSO (intermediate solution concentration: 1 mM, 100% DMSO) • Propantheline bromide (control) intermediate solution: 5 μL of propantheline stock solution (10 mM in ultra-pure water) were diluted with 45 μL of ultra-pure water (intermediate solution concentration: 1 mM) • Working solution 1: 20 μL of test compound intermediate solution (1 mM) were diluted with 180 μL of 45% ACN/H2O (working solution concentration: […], 40.5% ACN, 10% DMSO) • Working solution 2: 20 μL of control intermediate solution (1 mM) were diluted with 180 μL of 45% ACN/H2O (working solution concentration: 100 μM, 40.5% ACN, 10% DMSO) • Species/Matrix: CD-1 Mouse Blood • No. of Individuals: n>3 Male • Anticoagulant Used: EDTA-K2
• The fresh blood was collected on the day of experiment and pre-warmed in a water bath at 37° C. • Using an Apricot automation workstation, 98 μL/well of blank blood were added to all 96-well reaction plates (Blank, T0, T10, T30, T60 and T120). • An Apricot automation workstation was used to add 2 μL/well of working solution (100 μM) to all reaction plates except Blank (T0, T10, T30, T60 and T120). • All reaction plates containing mixtures of compound and blood were incubated at 37° C. in water bath. • The reaction plates were incubated at 37° C., and timer was started. • At the end of incubation, mixed 100 μL water with 100 μL spiked blood samples, then added 800 μL of stop solution (200 ng/mL tolbutamide and 200 ng/mL labetalol in ACN) to precipitate protein. Mixed thoroughly. • Each plate was sealed and shaken for 20 minutes. • After shaking, each plate was centrifuged at 4000 rpm and 4° C. for 20 minutes. • After centrifugation, an Apricot automation workstation was used to transfer 150 μL of supernatant from each reaction plate to its corresponding bioanalysis plate. • Each bioanalysis plate was submitted to LC-MS/MS analysis.
• The % remaining of test compound after incubation in blood was calculated using following equation:
as §3

half-life at 2 μM [1] [min]	half-life at 2 μM [2] [min]	Mouse Whole Blood Stability t1/2 [2] [min]	Compound
62	< 5	–	CCCC(=O)Oc1cc(N2CCc3c(nc(OC[C@@]45CCCN4C[C@H](F)C5)nc3N3CCC[C@]4(C3)NC(=O)NC4=O)C2)c2c(CC)c(F)ccc2c1 [Example 33, 4-(4-((R)-2,4-dioxo-1,3,7-triazaspiro[4.5]decan-7-yl)-2-(((2R,7aS)-2-fluorotetrahydro-1H-pyrrolizin-7a(5H)-yl)methoxy)-5,8-dihydropyrido[3,4-d]pyrimidin-7(6H)-yl)-5-ethyl-6-fluoronaphthalen-2-yl butyrate]
210	–	1	CCc1c(F)ccc2cc(OC(=O)C(C)C)cc(N3CCc4c(nc(OC[C@@]56CCCN5C[C@H](F)C6)nc4N4CCC[C@]5(C4)NC(=O)NC5=O)C3)c12 [Example 34, 4-(4-((R)-2,4-dioxo-1,3,7-triazaspiro[4.5]decan-7-yl)-2-(((2R,7aS)-2-fluorotetrahydro-1H-pyrrolizin-7a(5H)-yl)methoxy)-5,8-dihydropyrido[3,4-d]pyrimidin-7(6H)-yl)-5-ethyl-6-fluoronaphthalen-2-yl isobutyrate]
23	3	–	CCc1c(F)ccc2cc(OC(C)=O)cc(-c3ncc4c(N5C[C@@H]6C[C@H](C5)[C@H](O)C6)nc(OC[C@@]56CCCN5C[C@H](F)C6)nc4c3F)c12 [Example 1, 5-ethyl-6-fluoro-4-(8-fluoro-2-(((2R,7aS)-2-fluorotetrahydro-1H-pyrrolizin-7a(5H)-yl)methoxy)-4-((1R,5R,6R)-6-hydroxy-3-azabicyclo[3.2.1]octan-3-yl)pyrido[4,3-d]pyrimidin-7-yl)naphthalen-2-yl acetate]
235	4	–	CCCCCCCCCC(=O)Oc1cc(N2CCc3c(nc(OC[C@@]45CCCN4C[C@H](F)C5)nc3N3CCC[C@]4(C3)NC(=O)NC4=O)C2)c2c(CC)c(F)ccc2c1 [Example 51, 4-(4-((R)-2,4-dioxo-1,3,7-triazaspiro[4.5]decan-7-yl)-2-(((2R,7aS)-2-fluorotetrahydro-1H-pyrrolizin-7a(5H)-yl)methoxy)-5,8-dihydropyrido[3,4-d]pyrimidin-7(6H)-yl)-5-ethyl-6-fluoronaphthalen-2-yl decanoate]
33	2	–	CCC(=O)Oc1cc(N2CCc3c(nc(OC[C@@]45CCCN4C[C@H](F)C5)nc3N3CCC[C@]4(C3)NC(=O)NC4=O)C2)c2c(CC)c(F)ccc2c1 [Example 29, 4-(4-((R)-2,4-dioxo-1,3,7-triazaspiro[4.5]decan-7-yl)-2-(((2R,7aS)-2-fluorotetrahydro-1H-pyrrolizin-7a(5H)-yl)methoxy)-5,8-dihydropyrido[3,4-d]pyrimidin-7(6H)-yl)-5-ethyl-6-fluoronaphthalen-2-yl propionate]
33	3	–	CCOC(=O)Oc1cc(N2CCc3c(nc(OC[C@@]45CCCN4C[C@H](F)C5)nc3N3CCC[C@]4(C3)NC(=O)NC4=O)C2)c2c(CC)c(F)ccc2c1 [Example 36, 4-(4-((R)-2,4-dioxo-1,3,7-triazaspiro[4.5]decan-7-yl)-2-(((2R,7aS)-2-fluorotetrahydro-1H-pyrrolizin-7a(5H)-yl)methoxy)-5,8-dihydropyrido[3,4-d]pyrimidin-7(6H)-yl)-5-ethyl-6-fluoronaphthalen-2-yl ethyl carbonate]
79	–	1	CCc1c(F)ccc2cc(OC(=O)C3CCCC3)cc(N3CCc4c(nc(OC[C@@]56CCCN5C[C@H](F)C6)nc4N4CCC[C@]5(C4)NC(=O)NC5=O)C3)c12 [Example 42, 4-(4-((R)-2,4-dioxo-1,3,7-triazaspiro[4.5]decan-7-yl)-2-(((2R,7aS)-2-fluorotetrahydro-1H-pyrrolizin-7a(5H)-yl)methoxy)-5,8-dihydropyrido[3,4-d]pyrimidin-7(6H)-yl)-5-ethyl-6-fluoronaphthalen-2-yl cyclopentanecarboxylate]
–	4	–	CCc1c(F)ccc2cc(OC(=O)C(C)C)cc(N3CCc4c(nc(OCC56CCCN5C/C(=C\F)C6)nc4N4CCC[C@]5(C4)NC(=O)NC5=O)C3)c12 (stereo partly drawn) [Example 76, 4-(4-(CAN-2,4-dioxo-1,3,7-triazaspiro[4.5]decan-7-yl)-2-(((S,Z)-2-(fluoromethylene)tetrahydro-1H-pyrrolizin-7a(5H)-yl)methoxy)-5,8-dihydropyrido[3,4-d]pyrimidin-7(6H)-yl)-5-ethyl-6-fluoronaphthalen-2-yl isobutyrate]
–	2	–	CCc1c(F)ccc2cc(OC(C)=O)cc(N3CCc4c(nc(OCC56CCCN5C/C(=C\F)C6)nc4N4CCC[C@]5(C4)NC(=O)NC5=O)C3)c12 (stereo partly drawn) [Example 72, 4-(4-(CAN-2,4-dioxo-1,3,7-triazaspiro[4.5]decan-7-yl)-2-(((S,Z)-2-(fluoromethylene)tetrahydro-1H-pyrrolizin-7a(5H)-yl)methoxy)-5,8-dihydropyrido[3,4-d]pyrimidin-7(6H)-yl)-5-ethyl-6-fluoronaphthalen-2-yl acetate]

Compound	half-life at 2 μM [1] [min]	half-life at 2 μM [2] [min]	Mouse Whole Blood Stability t1/2 [2] [min]
CCc1c(F)ccc2cc(OC(=O)N3CCCCCCC3)cc(N3CCc4c(nc(OC[C@@]56CCCN5C[C@H](F)C6)nc4N4CCC[C@]5(C4)NC(=O)NC5=O)C3)c12 [Example 54, 4-(4-((R)-2,4-dioxo-1,3,7-triazaspiro[4.5]decan-7-yl)-2-(((2R,7aS)-2-fluorotetrahydro-1H-pyrrolizin-7a(5H)-yl)methoxy)-5,8-dihydropyrido[3,4-d]pyrimidin-7(6H)-yl)-5-ethyl-6-fluoronaphthalen-2-yl azocane-1-carboxylate]	> 289	> 289	–
CCc1c(F)ccc2cc(OC(=O)N(CCOC)CCOC)cc(N3CCc4c(nc(OC[C@@]56CCCN5C[C@H](F)C6)nc4N4CCC[C@]5(C4)NC(=O)NC5=O)C3)c12 [Example 65, 4-(4-((R)-2,4-dioxo-1,3,7-triazaspiro[4.5]decan-7-yl)-2-(((2R,7aS)-2-fluorotetrahydro-1H-pyrrolizin-7a(5H)-yl)methoxy)-5,8-dihydropyrido[3,4-d]pyrimidin-7(6H)-yl)-5-ethyl-6-fluoronaphthalen-2-yl bis(2-methoxyethyl)carbamate]	> 289	–	–
CCc1c(F)ccc2cc(OC(=O)N3CCCCC3)cc(N3CCc4c(nc(OC[C@@]56CCCN5C/C(=C\F)C6)nc4N4CCC[C@]5(C4)NC(=O)NC5=O)C3)c12 [Example 73, 4-(4-(CAN-2,4-dioxo-1,3,7-triazaspiro[4.5]decan-7-yl)-2-(((S,Z)-2-(fluoromethylene)tetrahydro-1H-pyrrolizin-7a(5H)-yl)methoxy)-5,8-dihydropyrido[3,4-d]pyrimidin-7(6H)-yl)-5-ethyl-6-fluoronaphthalen-2-yl piperidine-1-carboxylate]	–	147	–
